Assay results reported in patent US20240245677A1, “SELECTED COMPOUNDS FOR TARGETED DEGRADATION OF BRD9” (C4 THERAPEUTICS, INC., priority 2021, published 2024).

Assays:
GSPT1 = target: T1, GSPT1 (Homo sapiens, UniProt P15170+Q96SW2); test: GSPT1 HiBiT degradation assay in HEK293T.114 cells; format: cell-based; settings: 6 hours
T1 construct: CRISPR-edited to endogenously express HiBiT tagged GSPT1; host or cells: HEK293T.114
Excerpt: This assay evaluated the off-target degradation of the cereblon neosubstrate, Eukaryotic peptide chain release factor GTP-binding subunit ERF3A (GSPT1), induced by treatment with Compound 1 as measured by luminescence using Nano-Glo HiBiT® Lytic Assay System in 293T cells CRISPR-edited to endogenously express HiBiT tagged GSPT1.
Nano-Glo® HiBiT Lytic Assay System was purchased from Promega (Catalog No. N3050, Madison, WI, USA). HEK293T cells were obtained from ATCC (Catalog No. CRL-3216, Manassas, VA, USA), and maintained in DMEM medium (Catalog No. 11995065, ThermoFischer Scientific, Waltham, MA, USA) supplemented with 10% heat inactivated FBS (Catalog No. 16000-044, Gibco, Grand Island, NY, USA) at 37° C. in an atmosphere of 5% CO2 in air. The HiBiT polypeptide tag was introduced into the N-terminus of the endogenous GSPT1 locus by CRISPR-Cas9 to produce the HEK293T.114 modified cell line. The HiBiT polypeptide allows reconstitution of NanoBiT enzyme following cell lysis and addition of the complementing LgBiT polypeptide that activates substrate to produce a luminescent signal that is directly proportional to the amount of HiBiT-tagged GSPT1.
HEK293T.114 cells were routinely sub-cultured to maintain cell density between 30-80% confluence, not to exceed 20 passages. Cells were washed with PBS, trypsinized for 5 minutes at 37° C., and resuspended in fresh growth media without phenol red. An aliquot was diluted 2× with Trypan Blue solution 0.4% (Catalog No. 15250061, ThermoFisher Scientific, Waltham, MA, USA) and cell count determined. Cell concentration was adjusted with growth media without phenol red to 2×10^5 cells/mL.
The 10 mM DMSO stock solutions of Compound 1 or CC0885 were serially diluted (half log) in DMSO to generate 11-point dose series (10000, 3160, 1000, 316, 100, 31.6, 10, 3.2, 1, 0.32, 0.1 μM) in an acoustic ready 384-well low dead volume microplate (Catalog No. LP-0200, Beckman Coulter Life Sciences, Indianapolis, IN, USA). Using an Echo 550 Acoustic Liquid Handler (Beckman Coulter Life Sciences, Indianapolis, IN, USA), 30 nL of serially diluted compound solutions were dispensed in duplicate to each 384-well black TC-treated microplate (Catalog No. 3571, Corning, Glendale, CA, USA). 30 nL DMSO was transferred to all control wells.
30 μL of HEK293T.114 cells suspended in growth media without phenol red at 2×10^5 cells/mL (6000 cells/well) were dispensed using a Multidrop Combi Reagent Dispenser (Catalog No. 5840300, ThermoFisher Scientific, Waltham, MA, USA) to each well of columns 1-23 of 384-well black TC-treated microplates containing duplicate concentration range of test compounds and DMSO controls. 30 μL of media was dispensed to column 24 as background positive control (P). Plates were spun briefly at 1000 rpm and cells were incubated at 37° C., 5% CO2 for 6 hours. Final concentration of DMSO was 0.1% for all samples.
Cellular GSPT1 protein level was determined based on quantification of HiBiT using Nano-Glo® HiBiT Lytic Assay System (Promega). 30 μL Nano-Glo Lytic Assay reagents were added to each well of columns 1-23 and luminescence was acquired on EnVision® Multilabel Reader (Catalog No. 2104-0010, Perkin Elmer Inc., Dumfries, VA, USA). Column 24 (cells without Nano-Glo reagent addition) was used as plate background or positive control (P). Cells treated in the absence of the test compound (0.1% DMSO vehicle) were the negative control (N)/
Percent response of compound-treated samples (T) were calculated by normalizing to the DMSO treated negative (N) controls on the same microtiter plate after background (i.e., positive control) signal subtraction:
Curve fit and DC50 (concentration that degrades 50% GSPT1) determination was performed by 4 parametric logistic fit analysis using software such as GraphPad Prism software (GraphPad Software, LLC, San Diego, CA, USA). […]

[1] = Variable temperature XRPD (VT-XRPD) experiments; format: physicochemical
Procedure: To investigate form conversion behavior, variable temperature XRPD experiments were conducted for hydrate Pattern A, hydrate Pattern C, hydrate Pattern F and hetero-solvate Pattern L.
Based on DSC and TGA results, variable temperature XRPD was conducted for Pattern A, at different temperatures, including 25° C., 110° C. and 25° C.
Based on DSC and TGA results, variable temperature XRPD was conducted for Pattern B, at different temperatures, including 25° C., 80° C., 130° C. and 25° C. The sample after heating-cooling was placed at 25° C./75% RH condition for 1 day and investigated by XRPD.
Based on DSC and TGA results, variable temperature XRPD was conducted for Pattern C, at different temperatures, including 25° C., 110° C. and 25° C.
Based on DSC and TGA results, variable temperature XRPD was conducted for Pattern F at different temperatures, including 25° C., 110° C. and 25° C. The sample after heating-cooling was placed at 25° C./75% RH condition for 1 day and investigated by XRPD.
Based on DSC and TGA results, variable temperature XRPD was conducted for Pattern L, at different temperatures, including 25° C., 100° C., 140° C., 180° C. and 25° C. The sample after heating-cooling was placed at 25° C./92% RH condition for 24 h and investigated by XRPD.

in vitro = settings: plasma, 3 h, 2 µM
Procedure: Plasma protein binding (PPB) of Compound 1 was evaluated in plasma from mice, rats, dogs, cynomolgus monkeys, and humans using ultracentrifugation.
Frozen plasma from CD-1 mice, Sprague-Dawley rats, beagle dogs, cynomolgus monkeys, and humans was purchased and stored at ≤−30° C. On the day of study, plasma samples of CD-1 mice, Sprague-Dawley rats, beagle dogs, cynomolgus monkeys and humans were thawed under running cold tap water and centrifuged to remove any particulates.
For the internal standard, telmisartan, a 1 mg/mL solution was prepared by dissolving 1.4 mg of telmisartan in 1.4 mL of DMSO, and stored at 4° C.
The 10 mM stock solution of each test compound was used to prepare 400 μM intermediate stocks in methanol. Then, a 2 μM working stock of each test compound was prepared for plasma from each species (mouse, rat, dog, monkey, and human) by spiking 12 μL of the 400 μM intermediate stock for each test compound into 2400 μL of thawed and prepared plasma from a test species.
400 μL of blank plasma for each species was transferred to a 0.5 mL Beckman tube (Part No. 343776, Beckman Coulter Life Sciences, Indianapolis, IN, USA) and centrifuged for 3 hours at 627000×g at 37° C. The supernatant was removed and kept at room temperature.
To prepare for ultracentrifugation, the rotor of the centrifuge was placed into an incubator and warmed up to 37° C. before centrifugation. The vacuum switch of the OPTIMA™ MAX-TL Ultracentrifuge (Beckman Coulter Life Sciences, Indianapolis, IN, USA) was turned on and the vacuum was reduced to less than 10 microns to warm up the system. The ultracentrifuge's parameters were set to the following: Temperature—37° C.; Time—3 hours; and Speed—627000×g. For each species and each test compound, 2.4 mL of working stock was mixed and pre-incubated for 45 minutes at 37° C. Then, 60 μL was separated and precipitated with 200 μL of acetonitrile containing internal standard and labeled as (TO), and 0.4 mL (triplicates) were transferred to Beckman 2 mL tubes (Part No. 344625, Beckman Coulter Life Sciences, Indiana, IN, USA).
For each species and each test compound, the triplicate 0.4 mL sample tubes were centrifuged for 3 hours at 627000×g at 37° C. […] At 45 minutes, 60 μL was separated, precipitated with 200 μL of acetonitrile containing internal standard and labelled as (T45). After completion of 3 hours, 60 μL of incubated samples were separated, precipitated with acetonitrile containing internal standard, and labeled as (T3).
After completing the 3 hours of centrifugation, 30 μl of the top fraction of supernatant from each sample tube was removed (free fraction) and precipitated with acetonitrile containing internal standard (labeled as top sample).
After removing 30 μL of the top fraction, remaining top and bottom layer were mixed thoroughly to make a uniform mixture. From this mixture, 30 μL of bottom sample was collected and precipitated with acetonitrile containing internal standard (labelled as bottom sample).
Matrix matching was done for crashed stability samples (TO, T45 and T3 samples) by adding 30 μL of a 50:50 mixture of blank plasma supernatant and phosphate-buffered saline (PBS), and for top and bottom samples, by adding 30 μL of blank plasma (kept at room temperature).
All the stability samples and centrifuged samples were vortexed at 1000 rpm for 5 minutes and centrifuged at 4000 rpm for 10 minutes. Supernatant from each sample was separated, diluted 2-fold with water, and analyzed in LC-MS/MS.
Samples (supernatant-free fraction and total plasma) were analyzed by LCMS-MS (no standards).

T1 sequence (P15170 whole entry): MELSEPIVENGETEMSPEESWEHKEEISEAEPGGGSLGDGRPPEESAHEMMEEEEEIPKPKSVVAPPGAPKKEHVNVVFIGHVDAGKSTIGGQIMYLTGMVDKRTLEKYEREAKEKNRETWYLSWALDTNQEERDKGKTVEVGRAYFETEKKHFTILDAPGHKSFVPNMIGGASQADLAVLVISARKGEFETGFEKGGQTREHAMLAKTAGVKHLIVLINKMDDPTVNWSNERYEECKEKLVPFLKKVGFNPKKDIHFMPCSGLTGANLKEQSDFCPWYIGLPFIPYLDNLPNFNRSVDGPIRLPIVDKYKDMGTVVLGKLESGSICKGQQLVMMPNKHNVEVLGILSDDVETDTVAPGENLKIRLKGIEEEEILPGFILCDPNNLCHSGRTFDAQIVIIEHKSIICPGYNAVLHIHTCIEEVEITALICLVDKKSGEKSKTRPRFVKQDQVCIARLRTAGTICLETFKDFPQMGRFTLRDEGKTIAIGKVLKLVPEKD
T1 sequence (Q96SW2 whole entry): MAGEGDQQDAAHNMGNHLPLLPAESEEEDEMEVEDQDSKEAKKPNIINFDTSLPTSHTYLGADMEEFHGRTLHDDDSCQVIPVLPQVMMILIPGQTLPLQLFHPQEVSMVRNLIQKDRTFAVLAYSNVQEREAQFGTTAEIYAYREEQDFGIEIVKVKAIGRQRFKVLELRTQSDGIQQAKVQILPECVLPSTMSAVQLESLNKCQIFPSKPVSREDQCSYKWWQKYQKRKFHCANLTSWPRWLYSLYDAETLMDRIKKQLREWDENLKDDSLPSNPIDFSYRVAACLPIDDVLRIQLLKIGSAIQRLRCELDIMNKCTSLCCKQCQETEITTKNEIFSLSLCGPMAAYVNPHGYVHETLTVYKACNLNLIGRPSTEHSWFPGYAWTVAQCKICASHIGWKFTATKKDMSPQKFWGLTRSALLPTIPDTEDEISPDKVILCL
T1 sequence (Q16531 2-1140 partner limits assumed): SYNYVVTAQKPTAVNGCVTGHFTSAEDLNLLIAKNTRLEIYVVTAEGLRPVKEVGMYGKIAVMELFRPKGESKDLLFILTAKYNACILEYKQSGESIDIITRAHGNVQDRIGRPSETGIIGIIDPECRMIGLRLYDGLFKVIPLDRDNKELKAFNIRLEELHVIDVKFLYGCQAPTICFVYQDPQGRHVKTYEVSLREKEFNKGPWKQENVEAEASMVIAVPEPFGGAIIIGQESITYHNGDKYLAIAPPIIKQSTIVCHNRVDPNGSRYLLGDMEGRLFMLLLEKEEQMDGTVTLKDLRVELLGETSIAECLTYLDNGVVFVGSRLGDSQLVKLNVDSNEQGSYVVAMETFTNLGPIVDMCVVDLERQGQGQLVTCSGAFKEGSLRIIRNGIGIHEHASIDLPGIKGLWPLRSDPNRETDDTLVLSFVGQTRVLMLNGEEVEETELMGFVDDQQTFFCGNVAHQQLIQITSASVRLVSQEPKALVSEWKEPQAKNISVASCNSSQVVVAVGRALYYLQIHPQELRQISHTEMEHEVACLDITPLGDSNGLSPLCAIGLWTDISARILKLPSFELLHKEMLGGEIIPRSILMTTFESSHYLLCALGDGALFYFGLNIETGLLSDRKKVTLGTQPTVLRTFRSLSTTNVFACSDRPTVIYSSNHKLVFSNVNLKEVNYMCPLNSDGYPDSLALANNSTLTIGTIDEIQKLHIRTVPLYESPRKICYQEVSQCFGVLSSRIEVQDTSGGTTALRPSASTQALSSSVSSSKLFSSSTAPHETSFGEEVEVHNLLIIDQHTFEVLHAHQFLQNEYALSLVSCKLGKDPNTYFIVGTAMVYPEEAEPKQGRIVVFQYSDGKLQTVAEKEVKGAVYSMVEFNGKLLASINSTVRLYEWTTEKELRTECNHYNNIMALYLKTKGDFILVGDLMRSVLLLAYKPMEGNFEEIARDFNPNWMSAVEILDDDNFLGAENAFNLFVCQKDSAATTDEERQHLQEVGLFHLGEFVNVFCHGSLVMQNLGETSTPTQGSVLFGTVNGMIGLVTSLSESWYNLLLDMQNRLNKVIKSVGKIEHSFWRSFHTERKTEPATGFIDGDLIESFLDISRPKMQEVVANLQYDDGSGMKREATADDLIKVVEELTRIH

For `Cc1ccc(NC(=O)NCc2ccc3c(c2)CN(C2CCC(=O)NC2=O)C3=O)cc1Cl` (stereo not shown) [CC-885, reference compound], which “% GSPT1 Remaining, Mean” value (GSPT1; 0.100 nM) is on record?
The value was 106.2%.

What about the “% GSPT1 Remaining, Mean” value (GSPT1; 0.316 nM) of the same molecule?
Its value is 99.3%.

What about the “% GSPT1 Remaining, Mean” value (GSPT1; 1.00 nM) of the same molecule?
Its value is 96.4%.

What about the “% GSPT1 Remaining, Mean” value (GSPT1; 3.15 nM) of the same molecule?
Its value is 101.9%.

What about the “% GSPT1 Remaining, Mean” value (GSPT1; 10.0 nM) of the same molecule?
Its value is 107.2%.

What about the “% GSPT1 Remaining, Mean” value (GSPT1; 31.5 nM) of the same molecule?
Its value is 102.5%.

What about the “% GSPT1 Remaining, Mean” value (GSPT1; 100 nM) of the same molecule?
The value was 102.6%.

And the “% GSPT1 Remaining, Mean” value (GSPT1; 317 nM)?
Its value is 100.9%.

What about the “% GSPT1 Remaining, Mean” value (GSPT1; 1000 nM) of the same molecule?
Its value is 101.1%.

And the “% GSPT1 Remaining, Mean” value (GSPT1; 3161 nM)?
The value was 103.2%.

And the “% GSPT1 Remaining, Mean” value (GSPT1; 9990 nM)?
The value was 98.8%.

What about the “Mean Emax (%) ± SD” value (GSPT1; GSPT1-HiBiT, HEK293T.114 cells) of the same molecule?
Its value is 92.85 ± 1.30%.

What about the DC50 (GSPT1; GSPT1-HiBiT, HEK293T.114 cells, read-out: Geometric Mean DC50) of the same molecule?
The DC50 was 1.93 nM.

What about the “degradation of GSPT1 induced” value (GSPT1; positive control) of the same molecule?
Its value is > 95%.

For `COc1cc(-c2cn(C)c(=O)c(C)c2C)cc(OC)c1CN1CC[C@H](N2CCN(c3ccc(N[C@H]4CCC(=O)NC4=O)cc3F)CC2)C(F)(F)C1` [Pattern B], which XRPD ([1]; 25° C. (start)) is on record?
Its XRPD is “Pattern B”.

What does the source list for `COc1cc(-c2cn(C)c(=O)c(C)c2C)cc(OC)c1CN1CC[C@H](N2CCN(c3ccc(N[C@H]4CCC(=O)NC4=O)cc3F)CC2)C(F)(F)C1` [Pattern C]?
XRPD ([1]; 25° C. (start)): Pattern C; XRPD ([1]; 25° C./50% RH hold 2 h): Pattern C; XRPD ([1]; Cool to 25° C.): Metastable Pattern I; XRPD ([1]; Heat to 110° C.): Metastable Pattern I

For `COc1cc(-c2cn(C)c(=O)c(C)c2C)cc(OC)c1CN1CC[C@H](N2CCN(c3ccc(N[C@H]4CCC(=O)NC4=O)cc3F)CC2)C(F)(F)C1` [Pattern F], which XRPD ([1]; 25° C. (start)) is on record?
Its XRPD is “Pattern F”.

And the XRPD ([1]; Cool to 25° C.)?
The XRPD was “Pattern H”.

What about the XRPD ([1]; Heat to 110° C.) of the same molecule?
Its XRPD is “Pattern H”.

Which XRPD ([1]; 25° C. (start)) does the source give for `COc1cc(-c2cn(C)c(=O)c(C)c2C)cc(OC)c1CN1CC[C@H](N2CCN(c3ccc(N[C@H]4CCC(=O)NC4=O)cc3F)CC2)C(F)(F)C1` [Pattern L] here?
The XRPD was “Pattern L”.

And the XRPD ([1]; 25° C./92.5% RH hold 1 day)?
Its XRPD is “Pattern M”.

What about the XRPD ([1]; Cool to 25° C.) of the same molecule?
The XRPD was “Pattern M”.

What about the XRPD ([1]; Heat to 100° C.) of the same molecule?
The XRPD was “Pattern L”.

With `CC(=O)CC(c1ccccc1)c1c(O)c2ccccc2oc1=O` (stereo not shown) [Warfarin, reference compound] as the molecule, how does the “% Remaining at 3 hours” value (in vitro; CD-1, mouse) read?
Its value is 107.21%.

What about the “% Remaining at 3 hours” value (in vitro; Sprague-Dawley, rat) of the same molecule?
The value was 88.82%.

What about the “% Remaining at 3 hours” value (in vitro; beagle, dog) of the same molecule?
The value was 111.42%.

And the “% Remaining at 3 hours” value (in vitro; human)?
Its value is 91.67%.

And the “% Remaining at 3 hours” value (in vitro; monkey)?
The value was 115.61%.
